In PMC11352108, “Anti-Biofilm and Anti-Inflammatory Properties of the Truncated Analogs of the Scorpion Venom-Derived Peptide IsCT against Pseudomonas aeruginosa” (Antibiotics, 2024):
Where no end group is shown, it is not given here.

Key:
[1] = system: sheep red blood cells; assay: Hemolytic assay; assay type: cell-based; details: for Hemolytic activity (in words): sheep erythrocytes, concentrations as high as 150 μM; for % Hemolysis, Exp.1: replicate Exp.1; for % Hemolysis, Exp.2: replicate Exp.2; for % Hemolysis, Exp.3: replicate Exp.3
Protocol: A hemolytic assay was carried out according to the previously described method using commercially sourced sheep red blood cells (Professional Nanomed Company Limited, Bangkok, Thailand). One hundred microliters of a 2% sheep red blood cell suspension prepared in phosphate-buffered saline (PBS) pH 7.4. was incubated for 1 h at 37 °C with 100 μL of the studied peptides (final concentration of 150 µM). After centrifugation at 1000× g for 5 min, 100 μL of supernatant was transferred to new 96-well plates, and the release of hemoglobin was monitored, measuring an optical density (OD) at 405 nm using a BioTek Synergy HT microplate reader. Red blood cells treated with PBS pH 7.4 were used as a negative control, while those treated with 1% Triton X-100 were used as a positive control. The percent hemolysis was calculated as follows:(1) % Hemolysis=OD405 nm of the test peptide−OD405 nm of negative control/OD405 nm of positive control−OD405 nm of negative control × 100

[2] = system: P. aeruginosa PAO1 biofilms; assay: Biofilm susceptibility assay (crystal violet); assay type: cell-based, Pseudomonas aeruginosa; details: 150 μM, 24 h, 37 °C; for Decrease in P. aeruginosa biofilm biomass: 10^6 CFU/mL, OD 550 nm, compared with untreated control
Protocol: The effect of the truncated IsCT analogs on biofilms of P. aeruginosa was assessed using a method that was described previously. Briefly, 100 μL of the test peptides (final concentration, 150 μM) was added to each well of a 96-well microtiter plate (Nunc^TM, Roskilde, Denmark). Then, an aliquot of P. aeruginosa PAO1 culture was added to each well to obtain a final concentration of 10^6 CFU/mL. The bacterial culture alone was included as an untreated control. Following a 24-h incubation at 37 °C, unattached planktonic cells were discarded, and the wells were carefully washed twice with PBS with a pH of 7.4. Thereafter, biofilm biomasses were quantified by 0.1% crystal violet staining. After excess stains were discarded, the wells were washed with PBS pH 7.4 and left to air dry for 2 h at 37 °C. The biofilm biomass was subsequently dissolved by the addition of 30% acetic acid, and the plates were spectrophotometrically read at 550 nm using a BioTek Synergy HT microplate reader.

[3] = system: P. aeruginosa biofilm; details: at 4 μM; cited from earlier work
Text: We next determined the anti-biofilm potentials of the truncated IsCT analogs against biofilms formation of P. aeruginosa. […] Antibacterials with growth-inhibitory activity may accelerate the evolutionary pressure and ultimately lead to troublesome antibiotic resistance.

[4] = sheep red blood cells, 1 h, 37 °C, peptides 150 μM (Triton X-100 1%)

ILGKIGIKSLF [IsCT-Δ6-7]
Hemolytic activity (in words) [1]: decreased hemolytic activity
% Hemolysis, Exp.1 [1, 4]: 0.00%
% Hemolysis, Exp.2 [1, 4]: 0.0473%
% Hemolysis, Exp.3 [1, 4]: 2.44%
Decrease in P. aeruginosa biofilm biomass [2]: 28.27%

ILGKIKSLF [IsCT-Δ6-9]
Hemolytic activity (in words) [1]: decreased hemolytic activity
% Hemolysis, Exp.1 [1, 4]: 0.38%
% Hemolysis, Exp.2 [1, 4]: 0.00%
% Hemolysis, Exp.3 [1, 4]: 1.03%
Decrease in P. aeruginosa biofilm biomass [2]: 26.45%

ILGKIWIKSLF [IsCT-Δ7-8]
Hemolytic activity (in words) [1]: decreased hemolytic activity
% Hemolysis, Exp.1 [1, 4]: 0.25%
% Hemolysis, Exp.2 [1, 4]: 2.48%
% Hemolysis, Exp.3 [1, 4]: 3.66%
Anti-biofilm activity (in words) [2]: less pronounced

Triton X-100 [reference compound]
% Hemolysis ([1]; 2% sheep red blood cells in PBS pH 7.4, 1 h, 37 °C, peptides 150 μM (Triton X-100 1%, positive control), OD 405 nm, mean ± SEM of independent experiments): 100.00 ± 0.00%
% Hemolysis, Mean ([1]; sheep red blood cells, 1 h, 37 °C, peptides 150 μM (Triton X-100 1%), mean of 3 experiments (supplement)): 100.00%
% Hemolysis, Exp.1 [1, 4]: 100.00%
% Hemolysis, Exp.2 [1, 4]: 100.00%
% Hemolysis, Exp.3 [1, 4]: 100.00%

β-defensin 2: an AMP, human beta-defensin 2 (GIGDPVTCLKSGAICHPVFCPRRYKQIGTCGLPGTKCCKKP; ends and bridges not checked; cysteine pairing not given here; UniProt O15263 24-64, looked up)
Inhibition of P. aeruginosa biofilm production [3]: 40%

ILGKIWKSLF [IsCT-Δ7-9]
Hemolytic activity (in words) [1]: decreased hemolytic activity
% Hemolysis, Exp.1 [1, 4]: 0.18%
% Hemolysis, Exp.2 [1, 4]: 0.00%
% Hemolysis, Exp.3 [1, 4]: 1.13%
Anti-biofilm activity (in words) [2]: less pronounced
